In PMC4745691, “New therapeutic strategies in neuroblastoma: combined targeting of a novel tyrosine kinase inhibitor and liposomal siRNAs against ALK” (Oncotarget, 2015):

Assay: Tolerability in subcutaneous NB model (MTD, adverse effects, body weight)
Type: in vivo
Details: 50 mg/kg BID oral gavage, NB-bearing mice
Procedure: In other set of experiments, Balb/c nude mice were xenografted with SH-SY5Y cells as earlier. […] Tumors were measured twice weekly using callipers, and volume was calculated using the formula: Length × Width^2 × 0.5. Body weight was also assessed twice weekly. The experiment was terminated after 3 weeks of treatment.

C[C@@H](Oc1cc(-c2cnn(C3CCNCC3)c2)cnc1N)c1c(Cl)ccc(F)c1Cl [crizotinib, Crizotinib]
mice weight over time: No signs of severe weight
